Legend:
[1] = test system: Moloney MuLV; assay: Moloney MuLV replication in vitro; format: cell-based, Moloney murine leukemia virus
[2] = test system: equine infectious anemia virus (EIAV); assay: EIAV replication / infection in cells; format: cell-based
[3] = test system: eukaryotic topo I; settings: Gupta et al. 1988; cited from earlier work
[4] = Cell number, viability (trypan blue dye exclusion) and growth of H9 cells; format: cell-based; settings: human, h9 cells
[5] = test system: H9 cells; assay: as above; format: cell-based; settings: for Cell No.: 7 days postinfection
[6] = test system: HIV p24 antigen; assay: Western blot analysis of HIV p24 antigen after HIV infection and CPT treatment; format: cell-based, HIV-1; settings: 7 days post-infection
Procedure: A. H9 cells were infected as described in Table 1 and the text. Virus was pelleted from culture supernatants 7 days after infection. The viral pellets were resuspended, lysed, and the proteins separated and transferred as described in the Examples. The blot was analyzed using an HIV p24 specific monoclonal antibody (S. Showalter and M. Zweig, unpublished), and visualized using the Bio-Rad immunogold kit. Lane 1: virus from untreated infected cells; lane 2: virus from cells treated with 0.005 μM CPT for the first 18 h after infection.
B. Extracts of HIV-infected cells (7 days post-infection) were prepared and analyzed as described in the Examples using an HIV p24 specific monoclonal antibody (S. Showalter and M. Zweig, unpublished). Blots were visualized using the Bio-Rad immunogold kit. Lane 1: untreated infected cells; lane 2: 0.2 μM CPT; lane 3: 0.1 μM CPT; lane 4: 0.05 μM CPT; lane 5: 0.02 μM CPT; lane 6: 0.01 μM CPT; lane 7: 0.005 μM CPT. […]
The culture media from cells subjected to different treatments was prepared by centrifugation (200xg, 10 min) to remove whole cells and debris, the viral particles were subsequently pelleted (35,000 rpm, 11/2h), and the viral pellet was resuspended in 100 μl of RIPA buffer (50 mM Tris-HC1, pH 7.5; 0.5M NaHPO4, 0.5% NP40, 0.25% Na-deoxycholate, 0.1% SDS). […] Protein concentration was determined using the Bio-Rad protein assay. […]

[7] = test system: lentivirus-associated topoisomerase; assay: Inhibition of lentivirus-associated topoisomerase activity; format: biochemical, HIV and EIAV
[8] = test system: mammalian cells; settings: cytotoxic doses, Wall et al., cited from earlier work
[9] = test system: Spleen Focus Forming Virus (SFFV); assay: Inhibition of disease induction in vivo by SFFV, IV or IP; parameters: species or system NFS mice; settings: CPT 20 mg/kg; for # diseased mice (diseased/injected) / AVG. spleen WT.: 4 weeks
Procedure: Inhibition of Disease Induction In Vivo by Spleen Focus Forming Virus (SFFV) by Intravenous or Intraperitoneal Infection of CPT. In a repeat and extension of the previous experiment, NFS mice were injected either intraperitoneally or intravenously with dilutions of infectious virus stock in the presence or absence of CPT. Virus was mixed with stocks of CPT dissolved in DMSO at 10 mg/ml and adjusted so that mice were treated at 20 mg/kg. In samples without CPT, DMSO was added to an equivalent concentration (9.6%). In both IP and IV injections, 0.5ml was injected per mouse. Animals were monitored and sacrificed 4 weeks after injection. Spleens were weighed, and a spleen weight in excess of 0.2 gm was judged positive for SFFV disease.

[10] = test system: Simian Virus 40 DNA replication; settings: Snapka 1986; cited from earlier work

CC[C@@]1(O)C(=O)OCc2c1cc1n(c2=O)Cc2cc3ccccc3nc2-1 [CPT, Camptothecin]
inhibiting the initiation of infection by Moloney MuLV ([1]; cell culture): has been demonstrated
Moloney MuLV replication ([1]; in vitro): inhibits Moloney MuLV replication in vitro
inhibiting the initiation of infection by EIAV ([2]; cell culture): has been demonstrated
EIAV replication ([2]; chronically-infected cells): inhibits equine infectious anemia virus (EIAV) replication in chronically-infected cells
inhibition of eukaryotic topo I [3]: known specific inhibitor of eukaryotic topo I
viability at 168 h, 0.005 µM ([4]; 0.005 μM CPT, 7 days postinfection): 100%
viability at 168 h, 0.01 µM ([4]; 0.01 μM CPT, 7 days postinfection): 100%
viability at 168 h, 0.02 µM ([4]; 0.02 μM CPT, 7 days postinfection): 100%
viability at 168 h, 0.05 µM ([4]; 0.05 μM CPT, 7 days postinfection): 100%
viability at 168 h, 0.1 µM ([4]; 0.1 μM CPT, 7 days postinfection): 100%
viability at 168 h, 0.2 µM ([4]; 0.2 μM CPT, 7 days postinfection): 100%
selectivity ratio ([4]; data not shown, read-out: anti-HIV doses vs cytotoxic doses (times lower)): 400
Cell No. ([5]; 0.005 μM CPT): 2 × 10^6
Cell No. ([5]; 0.01 μM CPT): 2.2 × 10^6
Cell No. ([5]; 0.02 μM CPT): 4 × 10^5
Cell No. ([5]; 0.05 μM CPT): 1 × 10^5
Cell No. ([5]; 0.1 μM CPT): 1 × 10^5
Cell No. ([5]; 0.2 μM CPT): 1 × 10^5
effect on cell viability or cell growth ([5]; 0.005-0.02 μM CPT): no effect on cell viability or cell growth was detected
effect on cell growth ([5]; 0.05-0.2 μM CPT): cell growth was arrested
effect on cell viability ([5]; 0.05-0.2 μM CPT, trypan blue dye exclusion): no effect on cell viability was detected
p24 in culture media ([6]; 0.005 μM CPT for first 18 h (FIG. 1A)): could not be detected in the culture media
p24 in cell extracts ([6]; 0.005-0.2 μM CPT, 1 h (FIG. 1B)): could not be detected in extracts
lentivirus-associated topoisomerase activity [7]: inhibited this activity
fragmentation of DNA ([8]; mammalian cells): causes rapid and reversible fragmentation of DNA in mammalian cells
RNA and DNA synthesis [8]: inhibits RNA and DNA synthesis
# diseased mice (diseased/injected) ([9]; no virus, IP): 0/5
AVG. spleen WT. ([9]; no virus, IP): 0.10 g
# diseased mice (diseased/injected) ([9]; no virus, IV): 0/5
AVG. spleen WT. ([9]; no virus, IV): 0.10 g
injected mice died within 24 hours of causes unrelated to viral disease ([9]; virus 1/500, IP): 4/5
# diseased mice (diseased/injected) ([9]; virus 1/500, IP): 0/1
AVG. spleen WT. ([9]; virus 1/500, IP): 0.20 g
# diseased mice (diseased/injected) ([9]; virus 1/500, IV): 0/5
AVG. spleen WT. ([9]; virus 1/500, IV): 0.10 g
injected mice died within 24 hours of causes unrelated to viral disease ([9]; virus 1/1000, IP): 3/5
# diseased mice (diseased/injected) ([9]; virus 1/1000, IP): 0/2
AVG. spleen WT. ([9]; virus 1/1000, IP): 0.15 g
# diseased mice (diseased/injected) ([9]; virus 1/1000, IV): 0/5
AVG. spleen WT. ([9]; virus 1/1000, IV): 0.12 g
Simian Virus 40 DNA replication [10]: selectively interferes with Simian Virus 40 DNA replication

Reference: patent US5422344A, “Method of treating retroviral infections in mammals” (The United States of America as represented by the …, priority 1990, dated 1995)
